Our source for the MIC values is patent US7141564B2, “Nitrogen-containing bicyclic heterocycles for use as antibacterials” (priority 2001, dated 2006).

Where a name gives a salt, the structure may show the parent alone.

The assay deals with S. aureus WCUH29, S. pneumoniae 1629, H. influenzae ATCC 51907, M. catarrhalis Ravisio. The assay is described as follows: MIC of further test compounds against an alternative selection of organisms. It is filed as cell-based. Particulars: versus all these organisms (alternative panel of 4 strains). The procedure: The MIC […] of further test compounds against an alternative selection of organisms was determined: S. aureus WCUH29, S. pneumoniae 1629, H. influenzae ATCC 51907, M. catarrhalis Ravisio.

On to `CCc1cc2c(nc1CN[C@H]1CC[C@](O)(C(=O)Nc3ccnc4ccc(OC)nc34)CC1)NC(=O)CS2` [Example 311, 1-Hydroxy-t-4-[(7-ethyl-3-oxo-3,4-dihydro-2H-pyrido[3,2-b][1,4]thiazin-6-ylmethyl)-amino]-r-cyclohexanecarboxylic acid (6-methoxy-[1,5]naphthyridin-4-yl)-amide dihydrochloride], for which the MIC is at most 16 µg/mL. As for `COCCOc1ccc2nccc(NC(=O)[C@]3(O)CC[C@@H](NCc4ccc5c(n4)NC(=O)CS5)CC3)c2n1` [Example 313, 1-Hydroxy-t-4-[(3-oxo-3,4-dihydro-2H-pyrido[3,2-b][1,4]thiazin-6-ylmethyl)-amino]-r-cyclohexanecarboxylic acid [6-(2-methoxy-ethoxy)-[1,5]naphthyridin-4-yl]-amide dihydrochloride], the figure is at most 16 µg/mL.
